In patent publication US4298727A, “3',4'-Dideoxykanamycin A and 1-N-(S)-α-hydroxy-ω-aminoalkanoyl) derivatives thereof” (Zaidan Hojin Biseibutsu Kagaku KenkyuKai, priority 1979, dated 1981):
Converted amounts (≈) assume the structure as drawn.

Experiments:
[1] = system: Staphylococcus aureus 209P; experiment: MIC, standard serial dilution on nutrient agar; format: cell-based; conditions: Staphylococcus aureus, 209P, 18 h
Description: (§1) The minimum inhibitory concentrations (mcg/ml) of the new compounds of this invention against various microorganisms were determined according to a standard serial dilution method using nutrient agar incubation medium at 37° C., the estimation being made after 18 hours incubation.

[2] = system: Staphylococcus aureus APOI; experiment: MIC, standard serial dilution on nutrient agar; format: cell-based; conditions: Staphylococcus aureus, 18 h
Description: as §1

[3] = system: Staphylococcus epidermides 109; experiment: MIC, standard serial dilution on nutrient agar; format: cell-based; conditions: Staphylococcus, 109, 18 h
Description: as §1

[4] = system: Sarcina lutea PCI 1001; experiment: MIC, standard serial dilution on nutrient agar; format: cell-based; conditions: Micrococcus luteus, PCI1001, 18 h
Description: as §1

[5] = system: Klebsiella pneumoniae 22 #3038; experiment: MIC, standard serial dilution on nutrient agar; format: cell-based; conditions: Klebsiella pneumoniae, 18 h
[6] = system: Escherichia coli K-12; experiment: MIC, standard serial dilution on nutrient agar; format: cell-based; conditions: K12, 37° C., 18 hours
[7] = system: Escherichia coli K-12 ML 1629; experiment: MIC, standard serial dilution on nutrient agar; format: cell-based; conditions: K12ML1629, 37° C., 18 hours
[8] = system: Pseudomonas aeruginosa A3; experiment: MIC, standard serial dilution on nutrient agar; format: cell-based; conditions: Pseudomonas aeruginosa, A3, 18 h
Description: as §1

[9] = system: Klebsiella THO; experiment: MIC, standard serial dilution on nutrient agar; format: cell-based; conditions: Klebsiella, 18 h
Description: as §1

[10] = system: Klebsiella HOU; experiment: MIC, standard serial dilution on nutrient agar; format: cell-based; conditions: Klebsiella, 18 h
Description: as §1

[11] = system: Klebsiella BRIA; experiment: MIC, standard serial dilution on nutrient agar; format: cell-based; conditions: Klebsiella, 18 h
Description: as §1

[12] = system: Serratia CAT; experiment: MIC, standard serial dilution on nutrient agar; format: cell-based; conditions: Serratia, 18 h
Description: as §1

[13] = system: Serratia BOT; experiment: MIC, standard serial dilution on nutrient agar; format: cell-based; conditions: Serratia, 18 h
Description: as §1

[14] = system: Serratia 7; experiment: MIC, standard serial dilution on nutrient agar; format: cell-based; conditions: Serratia, 7, 18 h
Description: as §1

[15] = system: Providencia 19; experiment: MIC, standard serial dilution on nutrient agar; format: cell-based; conditions: Providencia, 19, 18 h
Description: as §1

[16] = system: Providencia ZAO; experiment: MIC, standard serial dilution on nutrient agar; format: cell-based; conditions: Providencia, 18 h
Description: as §1

[17] = system: Providencia Pv 37; experiment: MIC, standard serial dilution on nutrient agar; format: cell-based; conditions: PV37, 37° C., 18 hours
Description: as §1

[18] = system: Proteus vulgaris BAC; experiment: MIC, standard serial dilution on nutrient agar; format: cell-based; conditions: Proteus vulgaris, 18 h
Description: as §1

[19] = system: Proteus rettgeri AUB; experiment: MIC, standard serial dilution on nutrient agar; format: cell-based; conditions: Providencia rettgeri, 18 h
Description: as §1

[20] = system: Enterobacter 666; experiment: MIC, standard serial dilution on nutrient agar; format: cell-based; conditions: 37° C., 18 hours
Description: as §1

[21] = system: Enterobacter HAU; experiment: MIC, standard serial dilution on nutrient agar; format: cell-based; conditions: Enterobacter, 18 h
Description: as §1

[22] = system: Erwinia 7-22; experiment: MIC, standard serial dilution on nutrient agar; format: cell-based; conditions: 722, 37° C., 18 hours
Description: as §1

[23] = system: Pyocyanique; experiment: MIC, standard serial dilution on nutrient agar; format: cell-based; conditions: 18 h
Description: as §1

[24] = acute toxicity, intravenous injection in mice; format: in vivo; conditions: mouse, in vivo
From the text: Therefore, the new compounds of this invention are useful in therapeutic treatment of infections by various gram-negative and gram-positive bacteria, including the resistant bacterial strains. […] Accordingly, the low toxicity of the above new compounds of general formula (I) according to this invention is note-worthy, and the low toxicity of the new compounds of this invention with retaining the antibacterial activity substantially as high as that of the above-described known drugs will facilitate the clinical use of the new compounds, fulfilling the modern demand for providing efficient and less toxic drugs.

[25] = system: resistant bacteria; conditions: in words, background art; cited from earlier work

SMILES: NC[C@@H]1CC[C@@H](N)[C@@H](O[C@H]2[C@H](O)[C@@H](O[C@H]3O[C@H](CO)[C@@H](O)[C@H](N)[C@H]3O)[C@H](N)C[C@@H]2N)O1 [Dibekacin, 3',4'-dideoxykanamycin B]
- MIC [1]: 0.78 µg/mL (≈ 1.73 µM)
- MIC [2]: 0.78 µg/mL (≈ 1.73 µM)
- MIC [3]: 0.78 µg/mL (≈ 1.73 µM)
- MIC [4]: 25 µg/mL (≈ 55.4 µM)
- MIC [5]: > 100 µg/mL
- MIC [6]: 1.56 µg/mL (≈ 3.45 µM)
- MIC [7]: 1.56 µg/mL (≈ 3.45 µM)
- MIC [8]: 0.78 µg/mL (≈ 1.73 µM)
- MIC [9]: 1.56 µg/mL (≈ 3.45 µM)
- MIC [10]: > 100 µg/mL
- MIC [11]: > 100 µg/mL
- MIC [12]: 6.25 µg/mL (≈ 13.8 µM)
- MIC [13]: 25 µg/mL (≈ 55.4 µM)
- MIC [14]: > 100 µg/mL
- MIC [15]: > 100 µg/mL
- MIC [16]: > 100 µg/mL
- MIC [17]: > 100 µg/mL
- MIC [18]: 12.5 µg/mL (≈ 27.7 µM)
- MIC [19]: 100 µg/mL (≈ 221 µM)
- MIC [20]: > 100 µg/mL
- MIC [21]: > 100 µg/mL
- MIC [22]: > 100 µg/mL
- MIC [23]: 6.25 µg/mL (≈ 13.8 µM)
- LD50 [24]: 80 to 120 mg/kg
- activity against resistant bacteria [25]: remarkably active against a wide variety of resistant bacteria
